One test has as its target T1, C481S BTK protein (Homo sapiens, UniProt Q06187, C481S).
T1 construct: expressed in transfected cells; host or cells: 293T BTK MUT (C481S) cells
Nature of the test: BTK protein degradation assay (Western blotting), C481S BTK. The note with it: concentration range accounting for 50% degradation of C481S BTK protein, 293T BTK MUT (C481S) cells. Format: cell-based. The method, then: TMD-8, RAMOS, or 293T BTK MUT (C481S) cells were treated with the synthesized compounds and measured for intracellular BTK protein levels by Western blotting. The protocol of the experiment using TMD-8 cells is as follows.
The 12-well plates were treated as follows. A 10 mM stock was 1/10 diluted in series with DMSO ([…]) to form final concentrations of 10, 1, 0.1, 0.01, 0.001, and 0.0001 mM. The compounds with such concentrations were applied to cells, followed by harvesting the cells 24 hours later. For a negative control, a 1/10 dilution of DMSO in the medium (3 mL DMSO+27 mL medium) was used.
The 1-mL cell culture in each well was passed many times through a pipette and then transferred into a 1.5-mL microtube before centrifugation (500 g, 5 min, 4° C.). The supernatant was discarded and the cell pellet was washed with PBS. After centrifugation (500 g, 5 min, 4° C.) again, the supernatant was discarded and the cell pellet was taken.
A lysis buffer was prepared as follows. RIPA buffer (Biosesang, RC2038-050-00)+0.5 mM PMSF (SIGMA, P7626)+1×Protease/Phosphatase Inhibitor (Cell signaling, 5872S) was added in an amount […] per well and left for 30 minutes on ice (vortexing at 0 and 30 minutes) before sonication (5 cycles of pulse for 10 seconds and rest for 30 seconds, 70% amplification). The supernatant obtained by centrifugation (15000 g, 15 min, 4° C.) was transferred into a new microtube. Cells in each well of 96-well plates were 1/2 diluted with the RIPA buffer and incubated at 37° C. for 30 minutes with […] of a 50:1 mixture of BCA reagents A and B in BCA Protein Assay Kit (iNtRON, 21071). After being cooled for 10 minutes, the 96-well plates were measured for absorbance at 562 nm on the BioTek, SYNERGY H1 microplate reader. Samples were prepared by protein quantification based on the absorbance measurements and then boiled at 70° C. for 10 minutes. The sample buffer used in the case was prepared by mixing a NuPAGE or a Bolt 4× sample buffer (Invitrogen) and its 10× sample reducing agent depending on the gel to be used, and protein dilution was made in a RIPI buffer.
The samples were loaded in the same amount into a NuPAGE or Bolt Bis-tris 4-12% gradient gel and allowed to run therein (200 V, 35 minutes). The separated proteins were transferred onto a […] NC membrane, using Trans-blot Turbo (BIO-RAD) (1.3 A constant, 25V limit, 15 minutes). The membrane was blocked at room temperature for 1 hour with skim milk or Intercept Blocking Buffer (LI-COR, 927-60001):0.1% TBST=1:1. The membrane was incubated with Anti BTK Rabbit (1:1,000 in 5% skim milk/0.2% TBST, size: 77 kDa, Cell signaling Technology) at 4° C. overnight O/N or at room temperature for 2 hours and with Anti GAPDH Rabbit (1:10,000 in 5% BSA/0.2% TBST, size: 36 kDa, GENETEX) and Anti β-actin mouse (1:10,000 in 5% BSA/0.2% TBST, RT, size: 43 kDa, GENETEX) at room temperature for 1 or 3 hours. Then, the membrane was washed three times with 0.5% TBST for 5 minutes each time before incubation with the second antibody Anti-Rabbit IgG (1:5,000 in 5% Skim milk/TBST, CST), IRDye® 800CW Goat anti-Rabbit IgG Secondary Antibody (1:10,000 in 5% skim/TBST, RT 45 min), or IRDye® 680RD Goat anti-Mouse IgG Secondary Antibody (1:10,000 in 5% skim/TBST, RT 45 min) for 45 minutes at room temperature in a rocker. The membrane was washed five times with 0.5% TBST for 5 minutes in each time, followed by detection with LI-COR, Odyssey. In this regard, the detection proceeded, as it was, for house-keeping genes while using SuperSignal West Pico PLUS Chemiluminescent Substrate or SuperSignal West femto Maximum Sensitivity Substrate for BTK detection.
According to the concentration ranges of compounds accounting for 50% degradation of WT BTK protein and C481S BTK protein, the activities are expressed as +++(0.0001-0.01 μM), ++(0.01-1 μM), +(1-10 μM), −(>10 μM), and NT (not tested). […]

The target of another test is T2, WT BTK protein (Homo sapiens, UniProt Q06187).
T2 construct: measured for intracellular BTK protein levels by Western blotting; endogenous in cells; host or cells: TMD-8 or RAMOS cells
Description: BTK protein degradation assay (Western blotting), WT BTK. Format: cell-based. The note with it: concentration range accounting for 50% degradation of WT BTK protein, TMD-8 or RAMOS cells, 24 hours. The gist of the method: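 TMD-8 cells (1×10^6 cells/mL) treated 24 h with compound serial dilutions, then lysed in RIPA. Equal protein loads analysed by Western blot for BTK with GAPDH/β-actin as loading controls; activity binned by concentration giving 50% WT BTK degradation.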

Each structure is given as a SMILES string.

T1 sequence (Q06187 whole entry C481S): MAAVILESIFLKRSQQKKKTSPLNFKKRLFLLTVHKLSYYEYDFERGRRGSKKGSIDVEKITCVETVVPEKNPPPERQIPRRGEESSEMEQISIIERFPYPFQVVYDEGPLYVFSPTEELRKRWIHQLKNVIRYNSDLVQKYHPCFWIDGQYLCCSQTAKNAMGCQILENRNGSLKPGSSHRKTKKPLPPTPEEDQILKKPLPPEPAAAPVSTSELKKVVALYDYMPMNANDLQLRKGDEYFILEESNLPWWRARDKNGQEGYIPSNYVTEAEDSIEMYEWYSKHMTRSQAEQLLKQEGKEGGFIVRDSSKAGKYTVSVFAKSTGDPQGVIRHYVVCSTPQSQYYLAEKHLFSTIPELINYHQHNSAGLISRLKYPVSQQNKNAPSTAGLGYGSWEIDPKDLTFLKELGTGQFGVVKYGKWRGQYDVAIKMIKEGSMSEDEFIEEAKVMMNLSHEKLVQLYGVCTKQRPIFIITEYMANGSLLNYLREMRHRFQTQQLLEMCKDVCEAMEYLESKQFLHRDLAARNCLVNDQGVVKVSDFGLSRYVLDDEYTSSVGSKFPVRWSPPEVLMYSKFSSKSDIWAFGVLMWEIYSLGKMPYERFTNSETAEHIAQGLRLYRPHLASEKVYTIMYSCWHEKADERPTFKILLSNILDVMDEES
T2 sequence (Q06187 whole entry): as the sequence (Q06187 whole entry C481S) above, with S481C counted along it

What is called DC50 is the midpoint of the concentration-degradation curve. Consider `Cc1cccc(C)c1Nc1nn(C)c2nc(Nc3ccc4c(c3)CN(CCOCCNC(=O)C3CCN(c5cccc6c5C(=O)N(C5CCC(=O)NC5=O)C6=O)CC3)CC4)ncc12` (stereo not shown) [Compound 24, N-(2-(2-(7-((3-((2,6-Dimethylphenyl)amino)-1-methyl-1H-pyrazolo[3,4-d]pyrimidin-6-yl)amino)-3,4-dihydroisoquinolin-2 (1H)-yl)ethoxy)ethyl)-1-(2-(2,6-dioxopiperidin-3-yl)-1,3-dioxoisoindolin-4-yl)piperidine-4-carboxamide], for which the DC50 was 1 to 10 µM at C481S BTK protein and 0.0001 to 0.01 µM on WT BTK protein.
Take `Cc1cccc(C)c1Nc1nn(C)c2nc(Nc3ccc4c(c3)CN(CCOCCNC(=O)COc3ccc5c(c3)C(=O)N(C3CCC(=O)NC3=O)C5=O)CC4)ncc12` (stereo not shown) [Compound 25, N-(2-(2-(7-((3-((2,6-Dimethylphenyl)amino)-1-methyl-1H-pyrazolo[3,4-d]pyrimidin-6-yl)amino)-3,4-dihydroisoquinolin-2 (1H)-yl)ethoxy)ethyl)-2-((2-(2,6-dioxopiperidin-3-yl)-1,3-dioxoisoindolin-5-yl)oxy)acetamide]: the DC50 on C481S BTK protein lay within 1 to 10 µM; at WT BTK protein it was 0.0001 to 0.01 µM.
Regarding `Cc1cccc(C)c1Nc1nn(C)c2nc(Nc3ccc4c(c3)CN(C(=O)[C@H]3CCCN3C(=O)C3CCN(c5ccc6c(c5)C(=O)N(C5CCC(=O)NC5=O)C6=O)CC3)CC4)ncc12` (stereo partly drawn) [Compound 26, 5-(4-((R)-2-(7-((3-((2,6-Dimethylphenyl)amino)-1-methyl-1H-pyrazolo[3,4-d]pyrimidin-6-yl)amino)-1,2,3,4-tetrahydroisoquinoline-2-carbonyl)pyrrolidine-1-carbonyl)piperidin-1-yl)-2-(2,6-dioxopiperidin-3-yl)isoindoline-1,3-dione], the DC50 at C481S BTK protein is 1 to 10 µM; at WT BTK protein, 0.0001 to 0.01 µM.
Turning to `Cc1cccc(C)c1Nc1nn(C)c2nc(Nc3ccc4c(c3)CN(CCOCCNC(=O)C3CN(c5ccc6c(c5)C(=O)N(C5CCC(=O)NC5=O)C6=O)C3)CC4)ncc12` (stereo not shown) [Compound 27, N-(2-(2-(7-((3-((2,6-Dimethylphenyl)amino)-1-methyl-1H-pyrazolo[3,4-d]pyrimidin-6-yl)amino)-3,4-dihydroisoquinolin-2 (1H)-yl)ethoxy)ethyl)-1-(2-(2,6-dioxopiperidin-3-yl)-1,3-dioxoisoindolin-5-yl)azetidine-3-carboxamide], the DC50 at C481S BTK protein was in the range of 1 to 10 µM; on WT BTK protein it was 0.0001 to 0.01 µM.
For `Cc1cccc(C)c1Nc1nn(C)c2nc(Nc3ccc4c(c3)CN(CC3CCN(C(=O)C5CCN(c6ccc7c(c6)C(=O)N(C6CCC(=O)NC6=O)C7=O)CC5)CC3)CC4)ncc12` (stereo not shown) [Compound 28, 5-(4-(4-((7-((3-((2,6-Dimethylphenyl)amino)-1-methyl-1H-pyrazolo[3,4-d]pyrimidin-6-yl)amino)-3,4-dihydroisoquinolin-2 (1H)-yl)methyl)piperidine-1-carbonyl)piperidin-1-yl)-2-(2,6-dioxopiperidin-3-yl)isoindoline-1,3-dione], the DC50 at C481S BTK protein and at WT BTK protein was 0.0001 to 0.01 µM throughout.
On to `Cc1cccc(C)c1Nc1nn(C)c2nc(Nc3ccc4c(c3)CN(CC3CCN(c5ccc6c(c5)C(=O)N(C5CCC(=O)NC5=O)C6=O)CC3)CC4)ncc12` (stereo not shown) [Compound 29, 5-(4-((7-((3-((2,6-Dimethylphenyl)amino)-1-methyl-1H-pyrazolo[3,4-d]pyrimidin-6-yl)amino)-3,4-dihydroisoquinolin-2 (1H)-yl)methyl)piperidin-1-yl)-2-(2,6-dioxopiperidin-3-yl)isoindoline-1,3-dione], for which the DC50 at C481S BTK protein fell in the range of 0.01 to 1 µM; at WT BTK protein it was 0.0001 to 0.01 µM.
Turning to `Cc1cccc(C)c1Nc1nn(C)c2nc(Nc3ccc4c(c3)CN(CC3CCN(C(=O)COc5ccc6c(c5)C(=O)N(C5CCC(=O)NC5=O)C6=O)CC3)CC4)ncc12` (stereo not shown) [Compound 30, 5-(2-(4-((7-((3-((2,6-Dimethylphenyl)amino)-1-methyl-1H-pyrazolo[3,4-d]pyrimidin-6-yl)amino)-3,4-dihydroisoquinolin-2 (1H)-yl)methyl)piperidin-1-yl)-2-oxoethoxy)-2-(2,6-dioxopiperidin-3-yl)isoindoline-1,3-dione], the DC50 on C481S BTK protein was in the range of 0.01 to 1 µM; on WT BTK protein, 0.0001 to 0.01 µM.
For the compound `Cc1cccc(C)c1Nc1nn(C)c2nc(Nc3ccc4c(c3)CN(CC3CCN(C(=O)CN5CCN(c6ccc7c(c6)C(=O)N(C6CCC(=O)NC6=O)C7=O)CC5)CC3)CC4)ncc12` (stereo not shown) [Compound 31, 5-(4-(2-(4-((7-((3-((2,6-Dimethylphenyl)amino)-1-methyl-1H-pyrazolo[3,4-d]pyrimidin-6-yl)amino)-3,4-dihydroisoquinolin-2 (1H)-yl)methyl)piperidin-1-yl)-2-oxoethyl)piperazin-1-yl)-2-(2,6-dioxopiperidin-3-yl)isoindoline-1,3-dione], the DC50 at C481S BTK protein is 0.01 to 1 µM; on WT BTK protein, 0.0001 to 0.01 µM.
On the same counts, the results for `Cc1cccc(C)c1Nc1nn(C)c2nc(Nc3ccc4c(c3)CN(C(=O)[C@H]3CCCN3C(=O)CN3CCN(c5ccc6c(c5)C(=O)N(C5CCC(=O)NC5=O)C6=O)CC3)CC4)ncc12` (stereo partly drawn) [Compound 32, 5-(4-(2-((R)-2-(7-((3-((2,6-Dimethylphenyl)amino)-1-methyl-1H-pyrazolo[3,4-d]pyrimidin-6-yl)amino)-1,2,3,4-tetrahydroisoquinoline-2-carbonyl)pyrrolidin-1-yl)-2-oxoethyl)piperazin-1-yl)-2-(2,6-dioxopiperidin-3-yl)isoindoline-1,3-dione] are 1 to 10 µM and 0.01 to 1 µM.
On the same counts, the results for `Cc1cccc(C)c1Nc1nn(C)c2nc(Nc3ccc4c(c3)CN(C(=O)[C@@H]3CCCN3C(=O)CNc3ccc5c(c3)C(=O)N(C3CCC(=O)NC3=O)C5=O)CC4)ncc12` (stereo partly drawn) [Compound 35, 5-((2-((S)-2-(7-((3-((2,6-Dimethylphenyl)amino)-1-methyl-1H-pyrazolo[3,4-d]pyrimidin-6-yl)amino)-1,2,3,4-tetrahydroisoquinoline-2-carbonyl)pyrrolidin-1-yl)-2-oxoethyl)amino)-2-(2,6-dioxopiperidin-3-yl)isoindoline-1,3-dione] are 0.01 to 1 µM and 0.0001 to 0.01 µM.
As for `Cc1cccc(C)c1Nc1nn(C)c2nc(Nc3ccc4c(c3)CN(CC3CCN(C(=O)C5CCN(c6ccc7nnn(C8CCC(=O)NC8=O)c(=O)c7c6)CC5)CC3)CC4)ncc12` (stereo not shown) [Compound 37, 3-(6-(4-(4-((7-((3-((2,6-Dimethylphenyl)amino)-1-methyl-1H-pyrazolo[3,4-d]pyrimidin-6-yl)amino)-3,4-dihydroisoquinolin-2 (1H)-yl)methyl)piperidine-1-carbonyl)piperidin-1-yl)-4-oxobenzo[d][1,2,3]triazin-3 (4H)-yl)piperidin-2,6-one], the DC50 at C481S BTK protein and at WT BTK protein was 0.0001 to 0.01 µM in each case.

Source of the values: patent publication US12161722B2, “Bifunctional heterocyclic compound having BTK degradation function via ubiquitin proteasome pathway, and use thereof” (KOREA RESEARCH INSTITUTE OF CHEMICAL TECHNOLOGY, priority 2021, dated 2024).
